Reference: patent US9676793B2, “Co-crystals of 5-amino-2-oxothiazolo[4,5-d]pyrimidin-3(2H)-yl-5-hydroxymethyl tetrahydrofuran-3-yl acetate and methods for preparing and using the same” (Hoffmann-La Roche Inc., priority 2014, dated 2017)
pEC50: −log10 of the molar value. Where two headings read alike, the source gives them in different places.

Columns and labels:
HBV = assay: microbe, parasite or virus in culture
Procedure: Direct inhibition of viral replication was evaluated by monitoring the levels of secreted HBV DNA and the levels of HBV surface antigen (HBsAg) in cultures containing HBV infected HepaRG cells.
After three days incubation, the combined medium was replaced with differentiation medium and the cells were maintained in the differentiation medium for an additional 2 to 4 weeks. The differentiation medium was renewed every 2 to 3 days throughout the incubation period. Differentiated HepaRG cells (HepaRGd) display hepatocyte-like cell islands surrounded by monolayer of biliary-like cells. Prior to HBV infection and compound treatment, HepaRGd cells were seeded into collagen I coated 96-well plates (Gibco, Cat# A11428-03) at 50,000 to 60,000 cells per well. Cells were allowed to recover their differentiated phenotype in 96-well plates for at least 1 week after plating prior to HBV infection.
HBV inoculum was collected from HepG2.2.15 cultured cells, a cell line that supports HBV (genotype D, strain ayw) replication and virion secretion as disclosed in Sells M A., et al., PNAS, 84(4): 1005-1009. HepG2.2.15 cells were maintained in DMEM+GlutaMAX-I (Invitrogen) containing 1× Pen/Strep (Invitrogen), 10% FBS, and 0.25 mg/ml G-418 (Invitrogen) using hyperflasks (Corning) pre-coated with collagen I (BD Biosciences). Upon reaching confluency, HepG2.2.15 culture media was replaced with DMEM+GlutaMAX-I containing 1× Pen-Strep, 2.5% FBS, and 1% DMSO for 3 days and then replaced with DMEM+GlutaMAX-I containing 1× Pen-Strep and 1% DMSO. The 1% DMSO containing media was collected every 3 to 4 days over a two week period and HBV infectious virions and subviral particles were pelleted by ultracentrifugation through a 20% sucrose cushion in a Ti 45 Beckman rotor at 45,000 rpm for 3 hours at 4° C. The pellets were resuspended in WEM at a concentration of 10^8-10^9 genome equivalents (GE) per ml, determined by real time PCR as described below using a genotype D HBV containing plasmid DNA as an internal standard. To evaluate the infectivity of the inoculum, HepaRGd cells in 96-well plates were infected in differentiation medium containing 50 to 200 GE/cell and 4% PEG 8000 (PolyEthylene Glycol 8000, Sigma, Cat# P5413-500G) for 16 hr at 37° C. At the end of the infection, HBV inoculum was removed and cells were washed 3 times with differentiation medium. Differentiation medium was replenished every 2 to 3 days and HBV replication was monitored by measuring secreted HBV DNA, hepatitis B surface (HBsAg) and/or e (HBeAg) antigens.
HBsAg was detected from 50 μL of HBV infected HepaRG supernatants using the HBsAg chemiluminescence immunoassay (CLIA) kit following instructions as recommended by the manufacturer (Autobio Diagnostics Co., Zhengzhou, China). HBV DNA was extracted from 50 μL of HBV infected HepaRGd supernatants using the MagNA Pure 96 DNA and Viral NA Small Volume Kit (Roche, Cat#05 467 497 001). […] All PCR reactions were performed using the ViiA7 Real Time PCR system (Life Technologies).
Both direct and indirect inhibitory activity of HBV replication was measured. […] Aliquots of these reagents were added to independent wells of a 96-well culture plate containing HBV infected HepaRGd cells on day 4 post infection. The final concentration of DMSO in each well was 2%. The HepaRGd cells used in the inhibition study were maintained in differentiation media containing 2% DMSO.

human PBMCs = assay: Cytokine profiling of conditioned media from stimulated PBMCs; type: cell-based; details: no release with DMSO
Procedure: TLR-7 agonists stimulate the production cytokines and chemokines from human PBMC's. Conditioned medium was obtained by contacting cultured PBMC's with DMSO (control) or 100 μM R06871765 (drug) was contacted with HBV infected HepaRGd cells.
The anti-viral effect of conditioned medium obtained cultured PBMC's treated with R06871765 most likely is due to the release of cytokines and chemokines from PBMC's.

## Nc1nc2c(sc(=O)n2[C@@H]2O[C@H](CO)C[C@H]2O)c(=O)[nH]1 [R06871765]
HBV; Hepatitis B virus, 168 h, read-out: EC50 (HBV DNA or HBsAg)
  pEC50: < 3.70
HBV; Hepatitis B virus, read-out: EC/CC50 (μM), HBV DNA
  CC50: > 200 µM
HBV; Hepatitis B virus, read-out: EC/CC50 (μM), HBsAg
  CC50: > 200 µM
HBV; Hepatitis B virus, read-out: HBV DNA (% inhibition), 0.82 μM, EXP ID 10/15/2012 AL
  inhibition at 0.82 µM: -1.24%
HBV; Hepatitis B virus, read-out: HBV DNA (% inhibition), 0.82 μM, EXP ID 11/1/2012
  inhibition at 0.82 µM: 12.2%
HBV; Hepatitis B virus, read-out: HBV DNA (% inhibition), 2.47 μM, EXP ID 10/15/2012 AL
  inhibition at 2.47 µM: -16%
HBV; Hepatitis B virus, read-out: HBV DNA (% inhibition), 2.47 μM, EXP ID 11/1/2012
  inhibition at 2.47 µM: -0.77%
HBV; Hepatitis B virus, read-out: HBV DNA (% inhibition), 7.41 μM, EXP ID 10/15/2012 AL
  inhibition at 7.41 µM: -17.4%
HBV; Hepatitis B virus, read-out: HBV DNA (% inhibition), 7.41 μM, EXP ID 11/1/2012
  inhibition at 7.41 µM: -23.5%
HBV; Hepatitis B virus, read-out: HBV DNA (% inhibition), 22.22 μM, EXP ID 10/15/2012 AL
  inhibition at 22.22 µM: 4.96%
HBV; Hepatitis B virus, read-out: HBV DNA (% inhibition), 22.22 μM, EXP ID 11/1/2012
  inhibition at 22.22 µM: 5.69%
HBV; Hepatitis B virus, read-out: HBV DNA (% inhibition), 66.67 μM, EXP ID 10/15/2012 AL
  inhibition at 66.67 µM: -0.65%
HBV; Hepatitis B virus, read-out: HBV DNA (% inhibition), 66.67 μM, EXP ID 11/1/2012
  inhibition at 66.67 µM: 21.1%
HBV; Hepatitis B virus, read-out: HBV DNA (% inhibition), 200 μM, EXP ID 10/15/2012 AL
  inhibition at 200 µM: 12.2%
HBV; Hepatitis B virus, read-out: HBV DNA (% inhibition), 200 μM, EXP ID 11/1/2012
  inhibition at 200 µM: 3.11%
HBV; Hepatitis B virus, read-out: HBsAg (% inhibition), 0.82 μM, EXP ID 10/15/2012 AL
  inhibition at 0.82 µM: 10.5%
HBV; Hepatitis B virus, read-out: HBsAg (% inhibition), 0.82 μM, EXP ID 10/15/2012 VL
  inhibition at 0.82 µM: 14.7%
HBV; Hepatitis B virus, read-out: HBsAg (% inhibition), 0.82 μM, EXP ID 11/1/2012
  inhibition at 0.82 µM: 14.8%
HBV; Hepatitis B virus, read-out: HBsAg (% inhibition), 2.47 μM, EXP ID 10/15/2012 AL
  inhibition at 2.47 µM: -4.7%
HBV; Hepatitis B virus, read-out: HBsAg (% inhibition), 2.47 μM, EXP ID 10/15/2012 VL
  inhibition at 2.47 µM: 11.8%
HBV; Hepatitis B virus, read-out: HBsAg (% inhibition), 2.47 μM, EXP ID 11/1/2012
  inhibition at 2.47 µM: 14.7%
HBV; Hepatitis B virus, read-out: HBsAg (% inhibition), 7.41 μM, EXP ID 10/15/2012 AL
  inhibition at 7.41 µM: -11.7%
HBV; Hepatitis B virus, read-out: HBsAg (% inhibition), 7.41 μM, EXP ID 10/15/2012 VL
  inhibition at 7.41 µM: 3.92%
HBV; Hepatitis B virus, read-out: HBsAg (% inhibition), 7.41 μM, EXP ID 11/1/2012
  inhibition at 7.41 µM: 1.81%
HBV; Hepatitis B virus, read-out: HBsAg (% inhibition), 22.22 μM, EXP ID 10/15/2012 AL
  inhibition at 22.22 µM: 0.44%
HBV; Hepatitis B virus, read-out: HBsAg (% inhibition), 22.22 μM, EXP ID 10/15/2012 VL
  inhibition at 22.22 µM: 3.98%
HBV; Hepatitis B virus, read-out: HBsAg (% inhibition), 22.22 μM, EXP ID 11/1/2012
  inhibition at 22.22 µM: 0.66%
HBV; Hepatitis B virus, read-out: HBsAg (% inhibition), 66.67 μM, EXP ID 10/15/2012 AL
  inhibition at 66.67 µM: -2.13%
HBV; Hepatitis B virus, read-out: HBsAg (% inhibition), 66.67 μM, EXP ID 10/15/2012 VL
  inhibition at 66.67 µM: 14.5%
HBV; Hepatitis B virus, read-out: HBsAg (% inhibition), 66.67 μM, EXP ID 11/1/2012
  inhibition at 66.67 µM: 5.02%
HBV; Hepatitis B virus, read-out: HBsAg (% inhibition), 200 μM, EXP ID 10/15/2012 AL
  inhibition at 200 µM: 2.48%
HBV; Hepatitis B virus, read-out: HBsAg (% inhibition), 200 μM, EXP ID 10/15/2012 VL
  inhibition at 200 µM: 4.25%
HBV; Hepatitis B virus, read-out: HBsAg (% inhibition), 200 μM, EXP ID 11/1/2012
  inhibition at 200 µM: 16%
HBV; cultured HepaRG cells
  direct inhibition of HBV viral replication: did not exert any direct anti-HBV effect
HBV; read-out: EC/CC50 (μM), HBV DNA, EXP ID 11/1/2012
  CC50: > 200 µM
HBV; read-out: EC/CC50 (μM), HBsAg, EXP ID 10/15/2012 VL
  CC50: > 200 µM
HBV; read-out: EC/CC50 (μM), HBsAg, EXP ID 11/1/2012
  CC50: > 200 µM
Human PBMCs
  release of IFN-α, IL-6, TNF-α and IP-10 from PBMCs: induced release
